Reference: the supplement of paper PMC10307832

Columns and labels:
Experiment in all cases: relative viability (nuclei count vs DMSO), 5 days (fraction); higher = more cells survive
[1] = compound: CC1=CC(=NN1)NC2=CC(=NC(=N2)/C=C/C3=CC=CC=C3)N4CCN(CC4)C + Cc1nc(NC(=O)N2CCC[C@H]2C(N)=O)sc1-c1ccnc(C(C)(C)C(F)(F)F)c1 [Alpelisib] (partner 2 µM)
Outline: (§1)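 Lung cancer cell lines, seeded in 1536-well plates, were treated the following day by pin tool with a single drug or with five library-drug doses (not always all listed) in √10 steps on top of a fixed anchor-drug dose. Cells were fixed and nuclei stained in one step after 5 days, and nuclei were counted. Relative viability is the nuclei count for treated wells divided by that for vehicle wells, reported as medians of duplicate plates.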

Obatoclax + Pictilisib = compound: COC1=CC(c2cc3ccccc3[nH]2)=N/C1=C\c1[nH]c(C)cc1C [Obatoclax] + CS(=O)(=O)N1CCN(Cc2cc3nc(-c4cccc5[nH]ncc45)nc(N4CCOCC4)c3s2)CC1 [Pictilisib] (partner 1 µM)
Outline: as §1

Obatoclax + Decitabine = compound: COC1=CC(c2cc3ccccc3[nH]2)=N/C1=C\c1[nH]c(C)cc1C [Obatoclax] + Nc1ncn([C@H]2C[C@H](O)[C@@H](CO)O2)c(=O)n1 [Decitabine] (partner 2 µM)
Outline: as §1

Obatoclax + Vorinostat = compound: COC1=CC(c2cc3ccccc3[nH]2)=N/C1=C\c1[nH]c(C)cc1C [Obatoclax] + O=C(CCCCCCC(=O)Nc1ccccc1)NO [Vorinostat] (partner 1 µM)
Outline: as §1

Row | Cell Line | relative viability ([1]; first compound 0.08 µM) | relative viability ([1]; first compound 0.253 µM) | relative viability ([1]; first compound 0.8 µM) | relative viability ([1]; first compound 2.53 µM) | relative viability ([1]; first compound 8 µM) | relative viability (Obatoclax + Pictilisib; first compound 0.01 µM) | relative viability (Obatoclax + Pictilisib; first compound 0.03162 µM) | relative viability (Obatoclax + Pictilisib; first compound 0.1 µM) | relative viability (Obatoclax + Pictilisib; first compound 0.3162 µM) | relative viability (Obatoclax + Pictilisib; first compound 1 µM) | relative viability (Obatoclax + Decitabine; first compound 0.01 µM) | relative viability (Obatoclax + Decitabine; first compound 0.03162 µM) | relative viability (Obatoclax + Decitabine; first compound 0.1 µM) | relative viability (Obatoclax + Decitabine; first compound 0.3162 µM) | relative viability (Obatoclax + Decitabine; first compound 1 µM) | relative viability (Obatoclax + Vorinostat; first compound 0.01 µM) | relative viability (Obatoclax + Vorinostat; first compound 0.03162 µM) | relative viability (Obatoclax + Vorinostat; first compound 0.1 µM) | relative viability (Obatoclax + Vorinostat; first compound 0.3162 µM) | relative viability (Obatoclax + Vorinostat; first compound 1 µM)
1 | NCI-H1355 | 0.863 | 0.859 | 0.683 | 0.605 | 0.192 | 0.405 | 0.412 | 0.406 | 0.384 | 0.327 | 0.368 | 0.347 | 0.338 | 0.334 | 0.335 | 0.623 | 0.625 | 0.627 | 0.601 | 0.623
2 | NCI-H1395 | 1 | 1.07 | 1.03 | 0.602 | 0.289 | 0.815 | 0.488 | 0.485 | 0.811 | 0.519 | 0.716 | 0.735 | 0.754 | 0.695 | 0.513 | 0.996 | 0.643 | 0.642 | 0.635 | 0.596
3 | NCI-H1437 | 1.02 | 1.01 | 0.881 | 0.972 | 0.285 | 0.374 | 0.436 | 0.495 | 0.452 | 0.378 | 0.626 | 0.426 | 0.601 | 0.537 | 0.43 | 0.834 | 0.808 | 0.791 | 0.696 | 0.589
4 | NCI-H1651 | 0.816 | 0.919 | 1.15 | 0.558 | 0.146 | 0.58 | 0.567 | 0.634 | 0.256 | 0.188 | 0.582 | 0.338 | 0.434 | 0.355 | 0.495 | 0.587 | 0.491 | 0.512 | 0.384 | 0.595
